1 substance from PMC4209782 (Biochemical Journal, 2014) can be followed below.

Like-named read-outs stand apart in the source and are kept apart here.

Holding throughout (assay type): binding
In test [1] the test system is T1, 3×FLAG–SGK3-(1–162) R50A PX domain.
T1 construct: mutant 3×FLAG–SGK3-(1–162) R50A PX domain (middle panel); host or cells: E. coli BL21-CodonPlus (DE3)-RIL (from general methods, not tied expressly to this protein)
Description: ITC, SGK3 PX domain R50A. How it is done: (§1) ITC experiments were carried out on a Microcal VP-ITC. A series of injections of peptide were made into an isolated chamber containing the protein at a constant temperature of 30°C. Heat changes within the cell were monitored during each injection of peptide and recorded as the total heat change per second over time. A binding isotherm was then fitted to data and expressed as the heat change per mol of peptide against the peptide/protein ratio. Injectant was PtdIns and PtdIns(3)P (Echelon) dissolved in buffer (50 mM Hepes, pH 7.4, and 150 mM NaCl). […] Data were analysed using Origin 7.0 with the Microcal software patch installed. […]
(§2) Figure 5 SGK3 binds to PtdIns(3)P via its PX domain (A) ITC was performed by gradually titrating 0.5 mM PtdIns(3)P into the reaction chamber containing wild-type 3×FLAG–SGK3-(1–162) PX domain (left panel) or mutant 3×FLAG–SGK3-(1–162) R50A PX domain (middle panel) and 3×FLAG–SGK3-(1–162) R90A PX domain (right panel). […] Kd were calculated using Origin 7.0 with ITC data analysis disc program. (B) The ability of the indicated GST fusion proteins to bind various phosphoinositides was analysed. […] The membranes were washed and the PX domain protein bound to the membrane by virtue of its interaction with lipid was detected using by using HRP-conjugated anti-FLAG antibodies (SGK3 PX domain) or anti-GST (PH domains).
A general note: Isothermal titration calorimetry measures the heat released or taken up as one component is titrated into another.

Test [2] concerns the target T2, 3×FLAG–SGK3-(1–162) PX domain wild-type (Homo sapiens, UniProt Q96BR1).
T2 construct: reaction chamber containing wild-type 3×FLAG–SGK3-(1–162) PX domain; host or cells: E. coli BL21-CodonPlus (DE3)-RIL (from general methods, not tied expressly to this protein)
T2 sequence (Q96BR1 1-162): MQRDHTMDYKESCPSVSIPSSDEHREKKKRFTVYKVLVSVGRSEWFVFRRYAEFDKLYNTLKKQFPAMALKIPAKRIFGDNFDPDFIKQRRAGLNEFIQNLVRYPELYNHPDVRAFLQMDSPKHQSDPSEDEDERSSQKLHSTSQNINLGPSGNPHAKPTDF
The test is described as follows: ITC, wild-type SGK3 PX domain. To be noted: 30°C. How it is done:
as §1, §2

In test [3] the test system is T3, 3×FLAG–SGK3-(1–162) R90A PX domain.
T3 construct: 3×FLAG–SGK3-(1–162) R90A PX domain (right panel); host or cells: E. coli BL21-CodonPlus (DE3)-RIL (from general methods, not tied expressly to this protein)
Description: ITC, SGK3 PX domain R90A. How it is done:
as §1, §2

As for PtdIns(3)P, the “binding to PX domain with Arg50 to alanine mutation” value in test [1] is “abolished binding”. The values for the Kd in test [2] (read-out: Kd1) and in test [2] (read-out: Kd2) were 1.8 µM and 5.2 µM, respectively. In addition, in test [3], the “binding to PX domain with Arg90 to alanine mutation” value is “abolished binding”.
